Source: patent EP3046573B1, “AMYLIN ANALOGUES” (Zealand Pharma A/S, priority 2013, dated 2015)
Where two headings read alike, the source gives them in different places. Numbered stars: 1 amine (or outer) side, 2 acyl side, 3 side chain; on linkers, the order of the positions; unused ones are H or OH. Bridge positions count the residues as written; N and C are the ends. Square brackets hold non-standard residues; d marks the D form. Peptide text beside a SMILES is read from it. * marks the point of attachment. C20 diacid = O=C(O)CCCCCCCCCCCCCCCCCCC(=O)*; γGlu = O=C(O)[C@H](CCC(=O)[*:2])N[*:1]; NMeI = CC[C@H](C)[C@H](NC)C(=O)O; Sar = CNCC(=O)O

How the values were obtained:
[1] = Solubility assessment (turbidity absorbance at 325 nm); type: physicochemical; details: stock 2 mg/ml diluted 1:1, ambient temperature (typically 25°C), n=1; for Solubility, Acetate buffer pH 4: 100 mM acetate buffer pH 4.0; for Solubility, Acetate buffer pH 5: 100 mM acetate buffer pH 5.0; for Solubility, Histidine buffer pH 6: 100 mM histidine buffer pH 6.0; for Solubility, Histidine buffer pH 7: 100 mM histidine buffer pH 7.0; for Solubility, Phosphate buffer pH 6: 100 mM phosphate buffer pH 6.0; for Solubility, Phosphate buffer pH 7: 100 mM phosphate buffer pH 7.0; for Solubility, Phosphate buffer pH 7.5: 100 mM phosphate buffer pH7.5
How it was run: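 Stock 2 mg/ml peptide, H2O/HCl pH 2.5; 1:1 into 100 mM buffers: acetate pH 4.0/5.0, His pH 6.0/7.0, phosphate pH 6.0/7.0/7.5. A280 + A325, ~25°C, n=1. Soluble ≥ 1 mg/ml if A325 ≤ 0.02.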

[2] = molecular target: T1, human calcitonin receptor (hCTR2) (Homo sapiens, UniProt P30988); assay: hCTR2 assay: induction of cAMP (AlphaScreen cAMP Assay kit) in COS7 cells expressing hCTR2; type: cell-based
T1 construct: expressed in transfected cells
T1 sequence (P30988 25-474): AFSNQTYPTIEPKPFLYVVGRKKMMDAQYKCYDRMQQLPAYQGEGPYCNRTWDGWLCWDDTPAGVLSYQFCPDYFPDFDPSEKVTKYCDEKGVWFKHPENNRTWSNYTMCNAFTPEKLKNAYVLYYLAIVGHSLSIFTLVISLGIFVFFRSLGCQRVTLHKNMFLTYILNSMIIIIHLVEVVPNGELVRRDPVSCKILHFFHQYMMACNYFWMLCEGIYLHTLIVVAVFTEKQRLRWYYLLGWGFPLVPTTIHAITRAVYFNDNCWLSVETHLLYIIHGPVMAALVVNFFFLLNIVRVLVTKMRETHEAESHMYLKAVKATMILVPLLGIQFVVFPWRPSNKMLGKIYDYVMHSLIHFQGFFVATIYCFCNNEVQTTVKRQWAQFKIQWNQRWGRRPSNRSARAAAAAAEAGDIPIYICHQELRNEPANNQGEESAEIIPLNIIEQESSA
How it was run: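 Stable RAMP-naive COS7 clone expressing hCTR2 was stimulated with increasing peptide concentrations in Tyrode buffer (pH 7.4) with 100 µM IBMX and 0.1% casein for 15 min at 37° C. Cells were lysed and cAMP measured by AlphaScreen. EC50 and efficacy relative to pramlintide came from 4PL curve fits.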

[3] = molecular target: T2, human amylin receptor 3 (hAMYR3) consisting of hCTR2 co-expressed with human Receptor Activity Modifying Protein 3 (hRAMP3) (Homo sapiens, UniProt O60896+P30988); assay: hAMYR3 assay: induction of cAMP (AlphaScreen cAMP Assay kit) in COS7 cells expressing hAMYR3; type: cell-based
T2 construct: expressed in transfected cells
T2 sequence (P30988 25-474): T1 sequence (P30988 25-474)
T2 sequence (O60896 24-148 partner): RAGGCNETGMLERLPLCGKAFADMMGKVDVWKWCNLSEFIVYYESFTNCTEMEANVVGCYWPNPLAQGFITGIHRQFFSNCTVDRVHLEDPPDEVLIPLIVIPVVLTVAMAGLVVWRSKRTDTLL
How it was run: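 Stable COS7 clone co-expressing hCTR2 and hRAMP3, stimulated 15 min at 37° C with increasing peptide in Tyrode buffer pH 7.4 with 100 µM IBMX and 0.1% casein. cAMP measured by AlphaScreen after lysis; EC50 and % efficacy versus pramlintide from 4PL fit.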

Row | Compound | Solubility, Acetate buffer pH 4 [1] | Solubility, Acetate buffer pH 5 [1] | Solubility, Histidine buffer pH 6 [1] | Solubility, Histidine buffer pH 7 [1] | Solubility, Phosphate buffer pH 6 [1] | Solubility, Phosphate buffer pH 7 [1] | Solubility, Phosphate buffer pH 7.5 [1] | EC50 [2] [nM] | EC50 [3] [nM] | EC50 ([2]; cAMP induction in COS7 cells expressing hCTR2, average of a minimum of 3 determinations, read-out: hCTR2 EC50) [nM] | EC50 ([3]; cAMP induction in COS7 cells expressing hAMYR3, average of a minimum of 3 determinations, read-out: hAMY R3 EC50) [nM]
1 | CC[C@H](C)[C@@H](C(=O)N[C@@H](CC(C)C)C(=O)N[C@@H](CO)C(=O)N[C@@H](CO)C(=O)N[C@H](C(=O)N[C@@H](CC(N)=O)C(=O)N[C@H](C(=O)NCC(=O)N[C@@H](CO)C(=O)N[C@@H](CC(N)=O)C(=O)N[C@H](C(=O)N1CCC[C@H]1C(=O)NC)[C@@H](C)O)C(C)C)[C@@H](C)O)N(C)C(=O)[C@H](C)NC(=O)CN(C)C(=O)[C@H](Cc1ccccc1)NC(=O)[C@H](CC(N)=O)NC(=O)[C@H](CC(N)=O)NC(=O)[C@H](CO)NC(=O)[C@H](CO)NC(=O)[C@H](CCCNC(=N)N)NC(=O)[C@H](Cc1c[nH]cn1)NC(=O)[C@H](CC(C)C)NC(=O)[C@H](Cc1ccccc1)NC(=O)[C@H](CCC(=O)O)NC(=O)[C@H](C)NC(=O)[C@H](CC(C)C)NC(=O)[C@H](CCCNC(=N)N)NC(=O)[C@H](CCC(N)=O)NC(=O)[C@@H](NC(=O)[C@H](C)NC(=O)[C@@H]1CSSC[C@H](NC(=O)[C@H](CCCNC(=N)N)NC(=O)CC[C@H](NC(=O)CCCCCCCCCCCCCCCCCCC(=O)O)C(=O)O)C(=O)N[C@@H](CC(N)=O)C(=O)N[C@@H]([C@@H](C)O)C(=O)N[C@@H](C)C(=O)N[C@@H]([C@@H](C)O)C(=O)N1)[C@@H](C)O [Compound 152, [19CD]-isoGlu-RC()NTATC()ATQRLAEFLHRSSNNF-Gly(Me)-A-Ile(Me)-LSSTNVGSNTP-NHMe] ({C20 diacid-γGlu}-RCNTATCATQRLAEFLHRSSNNF[Sar]A[NMeI]LSSTNVGSNTP-NHMe; disulfide 2-7) | SS (SS indicates solubility ≥ 1mg/ml) | SS (SS indicates solubility ≥ 1mg/ml) | SS (SS indicates solubility ≥ 1mg/ml) | SS (SS indicates solubility ≥ 1mg/ml) | SS (SS indicates solubility ≥ 1mg/ml) | SS (SS indicates solubility ≥ 1mg/ml) | SS (SS indicates solubility ≥ 1mg/ml) | 0.95 | 5.2 |  | 
2 | CC[C@H](C)[C@@H](C(=O)N[C@@H](CC(C)C)C(=O)N[C@@H](CO)C(=O)N[C@@H](CO)C(=O)N[C@H](C(=O)N[C@@H](CC(N)=O)C(=O)N[C@H](C(=O)NCC(=O)N[C@@H](CO)C(=O)N[C@@H](CC(N)=O)C(=O)N[C@H](C(=O)N1CCC[C@H]1C(=O)NC)[C@@H](C)O)C(C)C)[C@@H](C)O)N(C)C(=O)CN(C)C(=O)[C@H](Cc1ccccc1)NC(=O)[C@H](CC(N)=O)NC(=O)[C@H](CC(N)=O)NC(=O)[C@H](CO)NC(=O)[C@H](CO)NC(=O)[C@H](CCCNC(=N)N)NC(=O)[C@H](Cc1c[nH]cn1)NC(=O)[C@H](CC(C)C)NC(=O)[C@H](Cc1ccccc1)NC(=O)[C@H](CCC(=O)O)NC(=O)[C@H](C)NC(=O)[C@H](CC(C)C)NC(=O)[C@H](CCCNC(=N)N)NC(=O)[C@H](CCC(N)=O)NC(=O)[C@@H](NC(=O)[C@H](C)NC(=O)[C@@H]1CSSC[C@H](NC(=O)[C@H](CCCNC(=N)N)NC(=O)CC[C@H](NC(=O)CCCCCCCCCCCCCCCCCCC(=O)O)C(=O)O)C(=O)N[C@@H](CC(N)=O)C(=O)N[C@@H]([C@@H](C)O)C(=O)N[C@@H](C)C(=O)N[C@@H]([C@@H](C)O)C(=O)N1)[C@@H](C)O [Compound 153, [19CD]-isoGlu-RC()NTATC()ATQRLAEFLHRSSNNF-Gly(Me)-Ile(Me)-LSSTNVGSNTP-NHMe] ({C20 diacid-γGlu}-RCNTATCATQRLAEFLHRSSNNF[Sar][NMeI]LSSTNVGSNTP-NHMe; disulfide 2-7) | SS (SS indicates solubility ≥ 1mg/ml) | SS (SS indicates solubility ≥ 1mg/ml) | II (II indicates solubility ≤ 1 mg/ml) | SS (SS indicates solubility ≥ 1mg/ml) | SS (SS indicates solubility ≥ 1mg/ml) | SS (SS indicates solubility ≥ 1mg/ml) | SS (SS indicates solubility ≥ 1mg/ml) |  |  | 0.73 | 6.1
3 | CC[C@H](C)[C@@H](C(=O)N[C@@H](CC(C)C)C(=O)N[C@@H](CO)C(=O)N[C@@H](CO)C(=O)N[C@H](C(=O)N[C@@H](CC(N)=O)C(=O)N[C@H](C(=O)NCC(=O)N[C@@H](CO)C(=O)N[C@@H](CC(N)=O)C(=O)N[C@H](C(=O)N[C@@H](Cc1ccc(O)cc1)C(=O)NC)[C@@H](C)O)C(C)C)[C@@H](C)O)N(C)C(=O)[C@H](C)NC(=O)CN(C)C(=O)[C@H](Cc1ccccc1)NC(=O)[C@H](CC(N)=O)NC(=O)[C@H](CC(N)=O)NC(=O)[C@H](CO)NC(=O)[C@H](CO)NC(=O)[C@H](CCCNC(=N)N)NC(=O)[C@H](Cc1c[nH]cn1)NC(=O)[C@H](CC(C)C)NC(=O)[C@H](Cc1ccccc1)NC(=O)[C@H](CCC(=O)O)NC(=O)[C@H](C)NC(=O)[C@H](CC(C)C)NC(=O)[C@H](CCCNC(=N)N)NC(=O)[C@H](CCC(N)=O)NC(=O)[C@@H](NC(=O)[C@H](C)NC(=O)[C@@H]1CSSC[C@H](NC(=O)[C@H](CCCNC(=N)N)NC(=O)CC[C@H](NC(=O)CCCCCCCCCCCCCCCCCCC(=O)O)C(=O)O)C(=O)N[C@@H](CC(N)=O)C(=O)N[C@@H]([C@@H](C)O)C(=O)N[C@@H](C)C(=O)N[C@@H]([C@@H](C)O)C(=O)N1)[C@@H](C)O [Compound 154, [19CD]-isoGlu-RC()NTATC()ATQRLAEFLHRSSNNF-Gly(Me)-A-Ile(Me)-LSSTNVGSNTY-NHMe] ({C20 diacid-γGlu}-RCNTATCATQRLAEFLHRSSNNF[Sar]A[NMeI]LSSTNVGSNTY-NHMe; disulfide 2-7) | SS (SS indicates solubility ≥ 1mg/ml) | SS (SS indicates solubility ≥ 1mg/ml) | SS (SS indicates solubility ≥ 1mg/ml) | II (II indicates solubility ≤ 1 mg/ml) | II (II indicates solubility ≤ 1 mg/ml) | II (II indicates solubility ≤ 1 mg/ml) | II (II indicates solubility ≤ 1 mg/ml) | 0.55 | 6.3 |  | 
